Patent publication US10682371B2, “Small molecule conjugates specifically activated in tumor microenvironment for targeting and use thereof” (priority 2014, dated 2020)
Where two headings read alike, the source gives them in different places.

Key:
[1] = system: D121 lung tumor cells; type: in vivo, C57 mice; details: for Size of tumor (mm^3) Day 18 / inhibitory rate on tumor % Day 18: immunized C57 mice; for Effect together with PDL1-antibody in promoting immunization and treatment, in words: combination with PDL1-antibody; for Treatment effects on C57 mice, in words: compared to the control group and the other treatment groups
Outline: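 Endpoint is tumor inhibition rate from tumor size (mm^3) after weekly drug treatment for 4 weeks, begun once s.c. tumors from 10^6 live D121 cells reached 0.3-0.4 cm. Before challenge, C57 mice received three i.p. doses of 5×10^5 irradiated D121 cells, two weeks apart, or saline.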

[2] = system: tumor CD8+ T cells; type: in vivo, C57 mice; details: CD8 positive cells in CD45 positive cells of tumor, flow cytometry
Outline: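 Flow cytometric ratio of CD8⁺ to CD45⁺ cells in dissociated tumour. Cell suspensions were labelled with CD45-PE and CD8-FITC for 1 h at room temperature, then washed twice in phosphate buffer with 1% fetal bovine serum.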

[3] = system: Human breast cancer MDA-MB435 tumor tissue homogenate; type: biochemical; details: for Activation ratio (%) in homogenates from different tumor tissues: acidized homogenate pH6.0
Procedure: (§1) At 37 °C, sample compounds were added into 100 μg acidized tumor tissue homogenates (pH6.0) in a concentration of 1 mg/ml.
(§2) At 37 °C, sample compounds were added into 100 μg acidized human breast cancer (MDA-MB435) tumor tissue homogenates (pH6.0) in a concentration of 1 mg/ml.
(§3) […], sample compounds were added into 100 μg acidized tumor tissue homogenates (pH6.0) in a concentration of 1 mg/ml.
as §2
(§4) At 37 °C, sample compounds were added into 100 μg acidized tumor tissue homogenates in a concentration of 1 mg/ml.
(§5) In the experiments, at 37 °C, compounds were added into proteases in 100 μg acidized tumor tissue homogenates in a concentration of 1 mg/ml. […] Meanwhile certain compounds produced in the screening were compared and their activation efficiency in same tissue was analyzed.
(§6) At 37° C., compounds were added into proteases in 100 μg acidized tumor tissue homogenates in a concentration of 1 mg/ml.

[4] = system: Human pancreatic cancer Panc-1 tumor tissue homogenate; type: biochemical; details: Human pancreatic cancer Panc-1, 1 mg/ml; for Activation ratio (%) in homogenates from different tumor tissues: acidized homogenate pH6.0, Paclitaxel release by HPLC
Procedure: as §1, §3, §4, §5, §6

[5] = system: Human chronic leukemia K562 tumor tissue homogenate; type: biochemical; details: Human chronic leukemia K562, 1 mg/ml; for Activation ratio (%) in homogenates from different tumor tissues: acidized homogenate pH6.0, Paclitaxel release by HPLC
Procedure: as §1, §3, §4, §5, §6

[6] = system: Human prostate cancer PC-3 tumor tissue homogenate; type: biochemical; details: Human prostate cancer PC-3, 1 mg/ml; for Activation ratio (%) in homogenates from different tumor tissues: acidized homogenate pH6.0, Paclitaxel release by HPLC
Procedure: as §1, §3, §4, §5, §6

[7] = system: Human liver cancer Hepg2 tumor tissue homogenate; type: biochemical; details: Human liver cancer Hepg2, 1 mg/ml; for Activation ratio (%) in homogenates from different tumor tissues: acidized homogenate pH6.0, Paclitaxel release by HPLC
Procedure: as §1, §3, §4, §5, §6

[8] = system: Human non-small cell lung cancer A549 tumor tissue homogenate; type: biochemical; details: Human non-small cell lung cancer A549, 1 mg/ml; for Activation ratio (%) in homogenates from different tumor tissues: acidized homogenate pH6.0, Paclitaxel release by HPLC
Procedure: as §1, §3, §4, §5, §6

[9] = system: Human colon cancer HT-29 tumor tissue homogenate; type: biochemical; details: Human colon cancer HT-29, 1 mg/ml; for Activation ratio (%) in homogenates from different tumor tissues: acidized homogenate pH6.0, Paclitaxel release by HPLC
Procedure: as §1, §3, §4, §5, §6

[10] = system: Human ovarian cancer SK-OV-3 tumor tissue homogenate; type: biochemical; details: Human ovarian cancer SK-OV-3, 1 mg/ml; for Activation ratio (%) in homogenates from different tumor tissues: acidized homogenate pH6.0, Paclitaxel release by HPLC
Procedure: as §1, §3, §4, §5, §6

[11] = system: Human renal cancer OS-RC-2 tumor tissue homogenate; type: biochemical; details: Human renal cancer OS-RC-2, 1 mg/ml; for Activation ratio (%) in homogenates from different tumor tissues: acidized homogenate pH6.0, Paclitaxel release by HPLC
Procedure: as §1, §3, §4, §5, §6

[12] = Table 27, D121 lung tumor, drugs weekly for 4 weeks
[13] = Table 27, immunized C57 mice, D121
[14] = Human breast cancer MDA-MB435, 1 mg/ml, Paclitaxel release by HPLC
[15] = Table 24, acidized human breast cancer (MDA-MB435) tumor tissue homogenates pH6.0, 1 mg/ml, Paclitaxel release by HPLC
[16] = Table 39, D121, drugs 13.2 μmol/kg, PDL1-antibody 5 μg/kg, weekly for 4 weeks
[17] = Table 34, acidized homogenate, Docetaxel release by HPLC

| Compound | Size of tumor (mm^3) Day 18 [1, 12] | inhibitory rate on tumor % Day 18 [1, 12] | Effect together with PDL1-antibody in promoting immunization and treatment, in words [1] | Treatment effects on C57 mice, in words [1] | CD8: CD45 (%) [2, 13] | Activation ratio (%) in homogenates from different tumor tissues [3, 14] | activation efficiency (%) [3, 15] | Activation ratio (%) in homogenates from different tumor tissues [4] | Activation ratio (%) in homogenates from different tumor tissues [5] | Activation ratio (%) in homogenates from different tumor tissues [6] | Activation ratio (%) in homogenates from different tumor tissues [7] | Activation ratio (%) in homogenates from different tumor tissues [8] | Activation ratio (%) in homogenates from different tumor tissues [9] | Activation ratio (%) in homogenates from different tumor tissues [10] | Activation ratio (%) in homogenates from different tumor tissues [11] | further results |
| --- | --- | --- | --- | --- | --- | --- | --- | --- | --- | --- | --- | --- | --- | --- | --- | --- |
| COCCOCC(=O)NCCCC[C@H](NC(=O)COCCOC)C(=O)N[C@H](C)C(=O)N[C@H](C)C(=O)N[C@H](CC(N)=O)C(=O)Nc1ccc(COC(=O)OC(C(=O)OC2C[C@@]3(O)[C@@H](OC(=O)c4ccccc4)[C@H]4[C@](C)(C(=O)[C@H](OC(C)=O)C(=C2C)C3(C)C)[C@@H](O)CC2OC[C@]24OC(C)=O)[C@@H](NC(=O)c2ccccc2)c2ccccc2)cc1 (some centres unmarked) [Compound A1] | 261.36 ± 178.3 mm^3 | 84.52% | excellent synergistic effect | greatly improved | 20.4% | 95.6% | 95.1% | 97.8% | 67.7% | 100.3% | 98.3% | 89.5% | 82.4% | 91.4% | 89.2% | – |
| COCCOCCOCCOCCOCCOCC(=O)NCCCC[C@H](NC(=O)COCCOCCOCCOCCOCCOC)C(=O)N[C@H](C)C(=O)N[C@H](C)C(=O)N[C@H](CC(N)=O)C(=O)Nc1ccc(COC(=O)OC(C(=O)OC2C[C@@]3(O)[C@@H](OC(=O)c4ccccc4)[C@H]4[C@](C)(C(=O)[C@H](OC(C)=O)C(=C2C)C3(C)C)[C@@H](O)CC2OC[C@]24OC(C)=O)[C@@H](NC(=O)c2ccccc2)c2ccccc2)cc1 (some centres unmarked) [Compound A2] | 375.727 ± 247.3 mm^3 | 77.74% | – | greatly improved | 19.4% | 94.4% | – | 93.8% | 76.3% | 101.4% | 87.6% | 92.4% | 92.9% | 88.6% | 94.5% | – |
| COCCOCCOCCOCCOCCOCCOCCOCCOCCOCCOCCOCC(=O)NCCCC[C@H](NC(=O)COCCOCCOCCOCCOCCOCCOCCOCCOCCOCCOCCOC)C(=O)N[C@H](C)C(=O)N[C@H](C)C(=O)N[C@H](CC(N)=O)C(=O)Nc1ccc(COC(=O)OC(C(=O)OC2C[C@@]3(O)[C@@H](OC(=O)c4ccccc4)[C@H]4[C@](C)(C(=O)[C@H](OC(C)=O)C(=C2C)C3(C)C)[C@@H](O)CC2OC[C@]24OC(C)=O)[C@@H](NC(=O)c2ccccc2)c2ccccc2)cc1 (some centres unmarked) [Compound A3] | 360.393 ± 312.7 mm^3 | 78.65% | – | greatly improved | 17.3% | 93.4% | 94.5% | 94.5% | 73.2% | 99.3% | 86.5% | 84.4% | 94.6% | 82.8% | 89.4% | – |
| COCCOCC(=O)NCCCC[C@H](NC(=O)COCCOC)C(=O)N[C@H](C)C(=O)N[C@H](C)C(=O)N[C@H](CC(N)=O)C(=O)Nc1ccc(COC(=O)OC(C(=O)OC2C[C@@]3(O)[C@@H](OC(=O)c4ccccc4)[C@H]4[C@](C)(C(=O)[C@H](O)C(=C2C)C3(C)C)[C@@H](O)CC2OC[C@]24OC(C)=O)[C@@H](NC(=O)OC(C)(C)C)c2ccccc2)cc1 (some centres unmarked) [Compound B1] | – | – | excellent synergistic effect | greatly improved | – | – | – | – | – | – | – | – | – | – | – | Size of tumor (mm^3) Day 18 [1, 16]: 271.36 ± 157.56 mm^3; inhibitory rate on tumor % Day 18 [1, 16]: 83.25%; CD8: CD45 (%) ([2]; Table 39, drugs 13.2 μmol/kg, PDL1-antibody 5 μg/kg): 18.9%; activation efficiency (%) ([3]; Table 34, Human breast cancer MDA-MB435, 1 mg/ml, acidized homogenate, Docetaxel release by HPLC): 93.5%; activation efficiency (%) [4, 17]: 86.9%; activation efficiency (%) [5, 17]: 69.0%; activation efficiency (%) [6, 17]: 76.1%; activation efficiency (%) [7, 17]: 76.3%; activation efficiency (%) [8, 17]: 91.2%; activation efficiency (%) [9, 17]: 83.9%; activation efficiency (%) [10, 17]: 93.1%; activation efficiency (%) [11, 17]: 90.9% |
